From patent US7517857B2, “Immune-modulating peptide” (POSCO, priority 2002, dated 2009)
Where a SMILES comes first, the peptide text is derived from it. Where no end group is shown, it is not given here. [ ]: non-standard residue; d: D form.

Columns and labels:
FPR [1] = biological target: T1, FPR (Homo sapiens, UniProt P21462); assay: ERK phosphorylation in FPR-expressing RBL-2H3 cells (immunoblot); type: cell-based; settings: for ERKs phosphorylation/activation: 10 μM peptides 2 min (WKYMVm time course 1 μM)
T1 construct: expressed in transfected cells; host or cells: RBL-2H3 (rat basophilic leukemia) cells, G418-selected
T1 sequence (P21462 1-350): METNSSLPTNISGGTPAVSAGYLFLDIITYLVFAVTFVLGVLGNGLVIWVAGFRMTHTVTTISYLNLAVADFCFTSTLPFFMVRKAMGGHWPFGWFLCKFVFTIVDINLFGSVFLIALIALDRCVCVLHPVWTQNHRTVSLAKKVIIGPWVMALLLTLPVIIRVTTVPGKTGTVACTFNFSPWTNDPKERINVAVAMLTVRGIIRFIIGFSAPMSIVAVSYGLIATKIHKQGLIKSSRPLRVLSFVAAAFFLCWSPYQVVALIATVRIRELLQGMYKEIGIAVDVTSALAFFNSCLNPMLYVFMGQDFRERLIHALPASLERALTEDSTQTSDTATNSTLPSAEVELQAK
Description: Cultured RBL-2H3 cells were aliquoted into 2×10^6 cells and stimulated with the indicated concentrations of WKYMVm and the peptides of the present invention for the indicated lengths of time. FPR- or FPRL1-expressing RBL-2H3 cells were stimulated with 1 μM WKYMVm for various periods of time (FIG. 3A). Two cells were preincubated with a vehicle or 100 ng/ml of PTX (24 hr), 50 μM of LY294002 (15 min), 5 μM of GFX (15 min), 10 μM BAPTA/AM (60 min), or 50 μM PD98059 (60 min) prior to 1 μM of WKYMVm treatment (FIG. 3B). FPR- or FPRL1-expressing RBL2H3 cells were stimulated with 10 μM of the peptides of the present invention for 2 min or 5 min, respectively (FIG. 3C).
After stimulation, the cells were washed with serum-free RPMI and lysed in a lysis buffer (20 mM Hepes, pH 7.2, 10% glycerol, 150 mM NaCl, 1% Triton X-100, 50 mM NaF, 1 mM Na3VO4, 10 μg/ml leupeptin, 10 μg/ml aprotinin, and 1 mM phenylmethylsulfonyl fluoride). The detergent-insoluble materials were pelleted by centrifugation (12,000×g, 15 min, at 4° C.), and the soluble supernatant fraction was removed and stored at −80° C. or used immediately. Protein concentrations in the lysates were determined using the Bradford protein assay reagent.
Each sample ([…] of protein) was subjected to 10% SDS-PAGE and phosphorylated ERK was determined by an immunoblot analysis with an anti-phospho-ERK antibody. Protein samples were prepared for electrophoresis by addition of a concentrated sample buffer. The portions in the samples were then separated by an 10% SDS-polyacrylamide gel using the buffer system described by Laemmli (17).
Following the electrophoresis, a western blot analysis with an anti-ERK2 antibody was performed to confirm that the same amounts of samples were used for the experiments. The proteins were blotted onto nitrocellulose membranes. The nitrocellulose membranes were then blocked by incubation with TBS (Tris-buffered saline, 0.05% Tween-20) containing 5% non-fat dry milk. Subsequently, the membranes were incubated with anti-phospho-ERK antibody, anti-phospho-Akt antibody or anti-Akt antibody washed with TBS. For a PKC translocation assay, an antibody for PKC isozyme-specific was incubated. Antigen-antibody complexes were visualized after incubating the membrane with a 1:5000 diluted goat anti-rabbit IgG or goat anti-mouse IgG antibody coupled to horseradish peroxidase and using the enhanced chemiluminescence detection system.

FPR [2] = biological target: T1, FPR; assay: Chemotaxis of FPR-expressing RBL-2H3 cells (modified Boyden chamber); type: cell-based; settings: FPR-expressing RBL-2H3 cells; various concentrations
Description: Chemotaxis assays were performed using multiwell chambers (modified Boyden chamber assay) (Neuroprobe Inc., Gaithersburg, Md.) (18). Briefly, polycarbonate filters (8 μm pore size) were precoated with 50 μg/ml of rat type I collagen (Collaborative Biomedicals) in a HEPES-buffered RPMI 1640 medium. A dry coated filter was placed on a 96-well chamber containing different concentrations of peptides. RBL-2H3 cells expressing FPR or FPRL1 were suspended in RPMI at a concentration of 1×10^6 cells/ml of serum-free RPMI, and 25 μl of the suspension were placed onto the upper well of the 96-well chemotaxis chamber. After incubation for 4 hours at 37° C., non-migrated cells were removed by scraping them out, and cells that migrated across the filter were dehydrated, fixed, and stained with hematoxylin (Sigma, St. Louis, Mo.). The stained cells in five randomly chosen high power fields (HPF) (400×) in that well were then counted. […] The numbers of migrated cells were determined by counting them in a high power field (400×). The Data are presented as means ±SE of three independent experiments each performed in duplicate. The effect of the peptides of the present invention on cellular chemotaxis in FPR- or FPRL1-expressing RBL-2H3 cells was measured. Various concentrations of each peptide were used for the chemotaxis assay with FPR- or FPRL1-expressing RBL-2H3 cells. The numbers of migrated cells were determined by counting them in a high power field (400×). The Data are presented as means ±SE of two independent experiments each performed in duplicates.

CSCC[C@H](NC(=O)CNC(=O)[C@H](CCCCN)NC(=O)[C@@H](N)Cc1c[nH]c2ccccc12)C(=O)N[C@H](C(=O)N[C@H](CCSC)C(N)=O)C(C)C [WKGMVm-NH2, Trp-Lys-Gly-Met-Val-D-Met-NH2] (H-WKGMV[dM]-NH2; N-terminus assumed)
ERKs phosphorylation/activation (FPR [1]): stimulated ERKs phosphorylation
cellular chemotaxis (FPR [2]): induced cellular chemotaxis

CSCC[C@H](NC(=O)[C@H](CCCNC(=N)N)NC(=O)[C@H](CCCCN)NC(=O)[C@@H](N)Cc1c[nH]c2ccccc12)C(=O)N[C@H](C(=O)N[C@H](CCSC)C(N)=O)C(C)C [WKRMVm-NH2, Trp-Lys-Arg-Met-Val-D-Met-NH2] (H-WKRMV[dM]-NH2; N-terminus assumed)
ERKs phosphorylation/activation (FPR [1]): stimulated ERKs phosphorylation
cellular chemotaxis (FPR [2]): induced cellular chemotaxis

CSCC[C@H](NC(=O)[C@H](Cc1ccc(O)cc1)NC(=O)[C@H](CCCCN)NC(=O)[C@@H](N)Cc1c[nH]c2ccccc12)C(=O)N[C@H](C(=O)N[C@H](CCSC)C(N)=O)C(C)C [WKYMVm-NH2, Trp-Lys-Tyr-Met-Val-D-Met-NH2, reference compound]
time of maximal ERKs activity after peptide treatment (FPR [1]; 1 μM WKYMVm): 2 min
ERKs phosphorylation/activation (FPR [1]): induced transient activation of ERKs
cellular chemotaxis (FPR [2]): induced cellular chemotaxis

WKYMVE-NH2 [WKYMVE-NH2, Trp-Lys-Tyr-Met-Val-Glu-NH2]
ERKs phosphorylation/activation (FPR [1]): stimulated ERKs phosphorylation
cellular chemotaxis (FPR [2]): induced cellular chemotaxis

WKYMVR-NH2 [WKYMVR-NH2, Trp-Lys-Tyr-Met-Val-Arg-NH2]
ERKs phosphorylation/activation (FPR [1]): stimulated ERKs phosphorylation
cellular chemotaxis (FPR [2]): induced cellular chemotaxis
